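Compound exposure: 48 hours, 5 concentrations, 96-well plates. GI50 is the concentration that inhibits growth by half.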 Calls of active or inactive are those of the source. Cut-off read from the data, not from the text of the source: active = GI50 up to about 1.1 µM and inactive = higher.
Experiments:
Assay in all cases: DTP human tumour cell line panel, 48 h
OVCAR-3 = tested on: OVCAR-3
IGROV-1 = tested on: IGROV-1
SN12C = tested on: SN12C
NCI-H460 = tested on: NCI-H460
K562 = tested on: K562
CAKI-1 = tested on: CAKI-1
HCT-15 = tested on: HCT-15
MOLT-4 = tested on: MOLT-4
A549 = tested on: A549
COLO 205 = tested on: COLO 205
SF-295 = tested on: SF-295
HL-60 = tested on: HL-60
OVCAR-8 = tested on: OVCAR-8
RXF 393 = tested on: RXF 393
HCT-116 = tested on: HCT-116
UACC-62 = tested on: UACC-62
SK-MEL-28 = tested on: SK-MEL-28
UO-31 = tested on: UO-31
U-251 = tested on: U-251
SF-268 = tested on: SF-268

Structure (SMILES)	GI50 (OVCAR-3)	GI50 (IGROV-1)	GI50 (SN12C)	GI50 (NCI-H460)	GI50 (K562)	GI50 (CAKI-1)	GI50 (HCT-15)	GI50 (MOLT-4)	GI50 (A549)	GI50 (COLO 205)	GI50 (SF-295)	GI50 (HL-60)	GI50 (OVCAR-8)	GI50 (RXF 393)	GI50 (HCT-116)	GI50 (UACC-62)	GI50 (SK-MEL-28)	GI50 (UO-31)	GI50 (U-251)	GI50 (SF-268)
CCCCCCCCCCCCCCCCOCC(COP(=O)([O-])OCC[N+](C)(C)C)OCCCCCCCCCCCCCCCC (stereo not given)	> 100 µM (inactive)	> 100 µM (inactive)	> 100 µM (inactive)	> 100 µM (inactive)	> 100 µM (inactive)	> 100 µM (inactive)	> 100 µM	> 100 µM (inactive)	> 10 µM (inactive)	> 100 µM (inactive)	> 100 µM (inactive)	> 100 µM (inactive)	> 100 µM (inactive)	> 100 µM (inactive)	> 100 µM (inactive)	> 100 µM (inactive)	> 100 µM (inactive)	> 100 µM (inactive)	> 100 µM (inactive)	> 100 µM (inactive)
Cc1ccc(S(=O)(=O)NNC2Oc3cc4c(cc3C(c3ccccc3O)C2C)OCO4)cc1 (stereo not given)	11.4 µM (inactive)	12.4 µM (inactive)	15.3 µM (inactive)	12.1 µM (inactive)	11.1 µM (inactive)	11.5 µM (inactive)	4.9 µM	10.4 µM (inactive)	8.36 µM (inactive)	14.7 µM (inactive)	11.6 µM (inactive)	18.4 µM (inactive)		4.22 µM (inactive)	10.4 µM (inactive)	15.7 µM (inactive)	15.6 µM (inactive)	11 µM (inactive)	10.3 µM (inactive)	14 µM (inactive)
Cn1c(=O)ccc2c(=O)c3ccccc3oc21	> 100 µM (inactive)	> 100 µM (inactive)	> 100 µM (inactive)	> 100 µM (inactive)	> 100 µM (inactive)	> 100 µM (inactive)	> 100 µM		> 100 µM (inactive)	> 100 µM (inactive)	> 100 µM (inactive)	> 100 µM (inactive)	> 100 µM (inactive)	64.9 µM (inactive)	> 100 µM (inactive)	> 100 µM (inactive)	> 100 µM (inactive)	4.68 µM (inactive)	> 100 µM (inactive)	> 100 µM (inactive)
Nc1nc(N)c2c(CCc3ccc(C(=O)N[C@@H](CCC(=O)O)C(=O)O)cc3)ccnc2n1	0.0365 µM (active)	0.029 µM (active)	< 0.0297 µM (active)	< 0.01 µM (active)	< 0.01 µM (active)	< 0.0116 µM (active)	< 0.0232 µM	< 0.05 µM (active)	0.0731 µM (active)	1.27 µM (inactive)	0.148 µM (active)	< 0.01 µM (active)	< 0.01 µM (active)	0.0465 µM (active)	< 0.01 µM (active)	< 0.0169 µM (active)	> 88.9 µM (inactive)	0.0164 µM (active)		0.0308 µM (active)
C=C1C(=O)OC2/C=C(\C)CC/C=C(/C)CC(OC(=O)/C(=C/CO)CO)C12 (stereo not given)	25.2 µM (inactive)	33.5 µM (inactive)		64.3 µM (inactive)	30 µM (inactive)	18.9 µM (inactive)	17.3 µM	25.6 µM (inactive)	66.2 µM (inactive)	16.9 µM (inactive)	93.5 µM (inactive)	3.33 µM (inactive)	32.4 µM (inactive)	11 µM (inactive)	> 10 µM (inactive)	16.8 µM (inactive)	28.4 µM (inactive)	17 µM (inactive)	20.9 µM (inactive)	26.7 µM (inactive)
O=C1CC2(CCC(O)(c3ccco3)C(C(=O)c3ccco3)C2)C(=O)c2ccccc2N1 (stereo not given)	84.7 µM (inactive)	99.1 µM (inactive)	> 100 µM (inactive)	29.5 µM (inactive)	50.1 µM (inactive)	> 100 µM (inactive)	53.8 µM		> 100 µM (inactive)	> 100 µM (inactive)	> 100 µM (inactive)	27.3 µM (inactive)	86.9 µM (inactive)	> 100 µM (inactive)	88.7 µM (inactive)	> 100 µM (inactive)		24.7 µM (inactive)	> 100 µM (inactive)	> 100 µM (inactive)
NC1C2C=CC(C2)C1C(=O)O (stereo not given)	> 100 µM (inactive)	> 100 µM (inactive)	> 100 µM (inactive)		> 100 µM (inactive)	> 100 µM (inactive)	> 100 µM	> 100 µM (inactive)	> 100 µM (inactive)	> 100 µM (inactive)	> 100 µM (inactive)	> 100 µM (inactive)	> 100 µM (inactive)	> 100 µM (inactive)	> 100 µM (inactive)	> 100 µM (inactive)	> 100 µM (inactive)	> 100 µM (inactive)	> 100 µM (inactive)	> 100 µM (inactive)
O=C1C=CC2(O[C@@H](Cc3ccccc3)[C@H](Cc3ccccc3)O2)C(SC(=O)c2ccccc2)C1 (stereo not given in full)	0.594 µM (active)	1.26 µM (inactive)	1.62 µM (inactive)	2.59 µM (inactive)	1.64 µM (inactive)	1.26 µM (inactive)	0.298 µM	0.19 µM (active)	4.22 µM (inactive)	1.73 µM (inactive)	1.95 µM (inactive)	1.18 µM (inactive)	0.209 µM (active)	0.0849 µM (active)	0.158 µM (active)	2.24 µM (inactive)	1.81 µM (inactive)	0.586 µM (active)	1.3 µM (inactive)	0.904 µM (active)
O=C1N[C@@H]([C@H](CCCCCO)OC(=O)c2ccccc2)CO1	> 100 µM (inactive)	> 100 µM (inactive)	> 100 µM (inactive)	> 100 µM (inactive)	> 100 µM (inactive)	> 100 µM (inactive)	> 100 µM	> 100 µM (inactive)	> 100 µM (inactive)	> 10 µM (inactive)	> 100 µM (inactive)	> 100 µM (inactive)	> 100 µM (inactive)	> 100 µM (inactive)	> 100 µM (inactive)	> 100 µM (inactive)	> 100 µM (inactive)	> 100 µM (inactive)	> 100 µM (inactive)	
O=C1C(=O)c2cc([N+](=O)[O-])ccc2-c2ccc([N+](=O)[O-])cc21	0.29 µM (active)	0.748 µM (active)	0.927 µM (active)	1 µM (active)	0.395 µM (active)	0.733 µM (active)	0.785 µM	0.288 µM (active)	2.52 µM (inactive)	3.01 µM (inactive)	1.71 µM (inactive)	0.246 µM (active)	0.351 µM (active)	0.191 µM (active)	0.177 µM (active)	0.466 µM (active)	1.99 µM (inactive)	1.51 µM (inactive)	0.773 µM (active)	0.484 µM (active)
Cn1c(=O)nc2n(-c3ccc(Cl)cc3Cl)c3ccccc3nc-2c1=O	2.1 µM (inactive)	12.8 µM (inactive)			3.92 µM (inactive)	3.08 µM (inactive)	3.05 µM	10.7 µM (inactive)	1.62 µM (inactive)	1.7 µM (inactive)	2.33 µM (inactive)	3.18 µM (inactive)	2.74 µM (inactive)	3.96 µM (inactive)	2.18 µM (inactive)	2.04 µM (inactive)	11.4 µM (inactive)	12 µM (inactive)	5.06 µM (inactive)	25.9 µM (inactive)
